From US20110054247A1, “METHODS FOR CLONING FERRETS AND TRANSGENIC FERRET MODELS FOR DISEASES” (UNIVERSITY OF IOWA RESEARCH FOUNDATION, priority 2009, published 2011)

Legend:
[1] = system: CFTR-/- kits; test: Oral UDCA therapy of CFTR-/- kits (neonatal clinical care, blood chemistries); type: in vivo, ferret; settings: Golytely and antibiotics
Procedure: Neonatal clinical care of CFTR^−/− kits. Two treatment protocols were developed to enhance post-natal survival and reduce the risk of intestinal obstruction caused by MI. Both protocols included administering metronidazole (5 mg/kg in 100 uL of dextrose saline, s.c.) 4× daily beginning at the time of birth, and starving the animals for the first 3 hours after birth and then administering a 150-200 μL Golytely® gavage (Braintree Laboratories Inc.) using a fire polished microloader pipette tip (Eppendorf Inc.) (FIG. 27 for example of gavage tube components). The gavage was repeated every 6 hours up to three times, until meconium was passed. […] When CFTR^−/− kits were weaned at 5 weeks of age, they were fed a slurry of Elecare hydrated solid chow (Marshall Farms) 2× daily, mixed with 1 lipase Unit per 10 gram body weight of Viokase-V (the amount of food eaten with each feeding was recorded for these calculations).
Blood chemistries. […] Mammalian Liver Profile rotors from Abaxis were used, and assessed plasma levels of: alkaline phosphatase (AP), alanine aminotransferase (ALT), bile acids (BA), total bilirubin (TBiI), total cholesterol (CHOL), gamma glutamyl transferase (GGT), and blood urea nitrogen (BUN). […]
For these reasons, it was determined whether oral UDCA therapy of CFTR^−/− kits might normalize liver function and improve nutrition. […]

[2] = system: submucosal glands of CFTR-/- tracheas; test: Functional measurement of gland secretions in tracheal xenografts; set-up: species or system ferret; settings: 30 minute stimulation
Procedure: Functional measurement of gland secretions in tracheal xenografts. Rates of mucous secretion from single submucosal glands were determined on excised CFTR^+/+, CFTR^+/−, and CFTR^−/− tracheal xenografts, as previously described in Joo et al. (2001), with modification to optimize xenograft viability. Xenografts were harvested and placed in minimal essential medium (MEM) with antibiotics, and shipped overnight at 4° C. from the University of Iowa to Stanford University. Tracheal xenografts were open along the posterior trachealis muscle, and dissected tracheal segments were mounted mucosal-side-up in a chamber without removing the cartilage at 4° C. […] Digital images of the spherical mucous bubbles under mineral oil were obtained at 5 minute intervals, based on which the secretory rates for individual glands was calculated using ImageJ software (NIH, MD). […] To confirm that differences in glandular secretory rates between CF and non-CF xenografts were not due to differences in gland size, we performed morphometric analysis on the samples analyzed. […] The unit length of the surface airway basal lamina and the glandular area were measured for each section using Metamorph software. […] On average about 75 photomicrographs were evaluated for each xenograft sample (N=5 for non-CF and N=6 for CF).

C[C@H](CCC(=O)O)[C@H]1CC[C@H]2[C@@H]3[C@@H](O)C[C@@H]4C[C@H](O)CC[C@]4(C)[C@H]3CC[C@]12C [UDCA, ursodeoxycholic acid]
survival of CFTR-/- kits that did not die of MI ([1]; 4 of 20 CFTR-/- kits treated with UDCA): 5 to 9 days | number of kits that died of MI ([1]; among 20 CFTR-/- kits treated with UDCA): 16

C[N+](C)(C)CCOC(N)=O [carbachol]
reduction of fluid secretion from submucosal glands, CFTR-/- versus non-CF tracheas ([2]; secretion in response to 1 μM carbachol): reduced by half

C=C[C@@]1(C)CC(=O)[C@]2(O)[C@@]3(C)[C@@H](O)CCC(C)(C)[C@@H]3[C@H](O)[C@H](OC(C)=O)[C@@]2(C)O1 [forskolin]
reduction of fluid secretion from submucosal glands, CFTR-/- versus non-CF tracheas ([2]; secretion in response to 3 μM forskolin): 7.4 fold
